Source: patent US20240182893A1, “INHIBITION OF FGR REDUCES FIBROSIS” (UNIVERSITY OF PITTSBURGH-OF THE COMMONWEALTH SYSTEM OF …, priority 2021, published 2024)
Entries after “also recorded” stand apart in the source; their conditions may differ.

What was measured:
[1] = system: target cell line (bottom layer); assay: Non-contact transwell coculture with sorted senescent cells from irradiated mouse lungs, profibrotic genes in target cell line; assay type: cell-based; conditions: FIG. 14
Description: FIG. 14. Upregulation of profibrotic genes in target cells by irradiated mouse lung senescent cells. In a noncontact transwell co-culture system, filter separated (19) sorted irradiated red and irradiated non-red mouse lung cells plated on top layer, there is significant induction of Tgf-β. Collagen 1a1 and collagen 3 in target cell line (bottom layer).
To establish that irradiated tdTOMp16+ senescent cells induce profibrotic genes in other cells, a C57BL/6 target cell line and a noncontact transwell co-culture system were used (Ejaz A et al. Stem Cells. 2019, 37, 791-802) (FIG. 14). Using the tdTOMp16+ stromal cell line, significant induction by RIS red cells of collagen 1al, collagen 3, and TGF-β in C57/B6 target cells was observed. The induction was abrogated by the Fgr inhibitor TL02-59 (Mukherjee A et al. Cell Death Discovery, 2021, 7, 349). It was confirmed that the findings in stromal cells also occur in lung. Red and non-red cells from 20 Gy irradiated tdTOMp16 mouse lungs were tested.

gfp+ bone marrow cells = assay: Transwell cell migration assay, gfp+ bone marrow cells towards senescent cells (3-micron filter); assay type: cell-based, mouse; conditions: TL02-59 10 nM, 48 h, FIG. 45A, C, D
Method: FIG. 45A-FIG. 45F. […] FIG. 45A—The tdTOMp16+ cells either irradiated or non-irradiated were sorted by FACS for either tdTOM+ or tdTOM− cells, and each population was placed in the bottom chamber of each culture, well separated by a 3-micron filter. Gfp+ bone marrow cells were placed on the top chamber of each well and migration assay was carried out (3-micron membrane). The Fgr inhibitor TL02-59 (10 nM) (Shen K et al. Sci Signal 11(553): eaat5916, 2018) or RS 504393 (10 μM), a Ccl2 inhibitor, which is a CCR2 chemokine receptor antagonist, was added to cultures 24 h later. The migration of gfp+ bone marrow cells from the top chamber through the 3-micron filter to the bottom chamber was imaged and total gfp+ cells were counted. FIG. 45B—Image of gfp+ migrating cells through the filter at 24 h for each condition (×100). At 48 h, emigrated gfp+ cells in the bottom well were counted by FACS. After 48 h, migrating total. (FIG. 45C) gfp+ cells, and (FIG. 45D) gfp+ CD45+ cells were counted by FACS. […] Cell migration from the top wells to the bottom wells was evaluated by imaging and by (FIG. 45F) FACS analysis. (n=3, ****p=0.0001). p-Values were calculated by the t-test.
In vitro transwell experiments. […] The migration of gfp+ cells through the filter to the bottom compartment was measured by imaging the bottom wells and counting gfp+ cells relative to numbers of senescent TOM+ (red) cells. […]

other similar kinases = conditions: cited from earlier work

In the case of CCN1CCN(Cc2ccc(NC(=O)c3ccc(C)c(Oc4ncnc5cc(OC)c(OC)cc45)c3)cc2C(F)(F)F)CC1 [TL02-59], the “induction of Tgf-β, Collagen 1a1 and collagen 3 in target cells by irradiated mouse lung senescent cells” value ([1]; TL02-59 10 nM) is reported as “can block senescent cell induction of these genes”, the “induction of collagen 3 by RIS red lung cells” value ([1]; cells from 20 Gy irradiated tdTOMp16 mouse lungs) is reported as “reduced the induction of collagen 3” and the “migration of gfp+ monocyte/macrophages towards senescent cells from irradiated tdTOMp16+ stromal cell line” value (gfp+ bone marrow cells) is reported as “abrogated monocyte/macrophages recruitment; also recorded: significantly reduced the migration; also recorded: inhibited; also recorded: prevents migration”. The “concentration required for inhibition of other similar kinases” value (other similar kinases) was 100 to 1000 nM.
